{"source": "patent US20160281050A1", "about": "“METHODS FOR TREATING A CULTURE OF HAEMATOCOCCUS PLUVIALIS FOR CONTAMINATION USING SALT AND HYDROGEN PEROXIDE” (HELIAE DEVELOPMENT LLC, priority 2015, published 2016)", "key": {"[1]": {"system": "Haematococcus pluvialis (Strain 1)"}, "[2]": {"system": "chytrid zoospores and sporangia", "details": "1% dose of a solution comprising 50% NaOH; 25, 40, and 50° C", "procedure": "A solution comprising 50% sodium hydroxide (NaOH) was evaluated as a treatment for chytrids that could be applied to empty reactors in order to clean them for subsequent batches. A pure culture of chytrid zoospores and sporangia was treated with a 1% dose of a solution comprising 50% NaOH at temperatures of 25, 40, and 50° C. The cultures were then observed under a microscope for a reduction in the chytrid zoospores or sporangia number, or a reduction in the integrity of the chytrid cells."}, "pure chytrid culture": {"system": "pure chytrid culture", "assay": "Chytrid tolerance: pure chytrid culture in well plate, observed under a microscope (Examples 13-14)", "format": "cell-based", "details": "40 ppm", "procedure": "Experiments were performed to determine chytrid tolerance to bleach, salt, Lufenuron (chemical biocide), and Rid Fungus (blend of natural organic herbs) for evaluation as a treatment for chytrids. A pure chytrid culture in a well plate was treated every 24 hours and observed under a microscope to determine the effect. An untreated culture was used as a control for comparison purposes. Qualitative assessments and quantitative estimates were made by visual observation under a microscope.\nSeveral concentrations of salt and Rid Fungus (blend of organic herbs) were further investigated as a chytrid treatment, as in Example 13. A pure chytrid culture in a well plate was treated and visually observed under a microscope to determine the effect. An untreated culture was used as a control for comparison purposes."}, "chytrids": {"system": "chytrids", "assay": "Haematococcus red cyst cells infected with chytrids treated in well plates (Example 15)", "format": "cell-based", "procedure": "Several concentrations of bleach and Lufenuron were further investigated for their effectiveness as chytrid treatments for Haematococcus pluvialis during culturing. Cultures of Haematococcus pluvialis (Strain 1) red cyst cells infected with chytrids were treated in well plates (0.5 mL volume) with bleach or Lufenuron to evaluate the effect on the Haematococcus cells if bleach or Lufenuron were to be used as a contamination treatment. A first control culture of Haematococcus red cyst cells absent of chytrids and a second control culture of healthy Haematococcus red cyst cells inoculated with chytrids were used as comparisons for the treatments. The cultures were treated with bleach at or less than the tolerance level of Haematococcus: 0.01, 0.02 and 0.03 mL/L of 12.5% stock concentration bleach (calculated concentration 0.00125, 0.0025, and 0.00375 mL/L), or different concentrations of Lufenuron (0.01, 0.1 and 1% of culture volume). The cultures were observed under a microscope during the experiment to determine effectiveness."}}}
{"molecule": "bleach", "values": [{"measurement": "known tolerance of Haematococcus pluvialis (Strain 1)", "setting": "[1]", "value": 0.00375, "unit": "mL/L"}]}
{"molecule": "[Na+].[OH-]", "note": "[NaOH, sodium hydroxide]", "values": [{"measurement": "reduction in chytrid zoospores or sporangia number or integrity", "setting": "[2]", "value": "not a reduction in chytrid zoospores or sporangia number or integrity"}]}
{"molecule": "O=C(NC(=O)c1c(F)cccc1F)Nc1cc(Cl)c(OC(F)(F)C(F)C(F)(F)F)cc1Cl", "note": "(stereo not drawn) [Lufenuron]", "values": [{"measurement": "microscope observation of pure chytrid culture", "setting": "pure chytrid culture; after 1 hour", "value": "swimming zoospores"}, {"measurement": "microscope observation of pure chytrid culture", "setting": "pure chytrid culture; after 24 hours", "value": "Swimming zoospores"}, {"measurement": "microscope observation of pure chytrid culture", "setting": "pure chytrid culture; after 48 hours and 72 hours", "value": "heavy bacteria with sporangia and zoospores"}, {"measurement": "microscope observation of infected red cyst culture", "setting": "chytrids; 0.01% of culture volume, after 24 and 48 hours", "value": "swimming zoospores and positive infection"}, {"measurement": "microscope observation of infected red cyst culture", "setting": "chytrids; 0.01% of culture volume, after 72 hours", "value": "Some swimming zoospores, Ochromonas (single-celled, motile, golden-brown alga), and active infection"}, {"measurement": "microscope observation of infected red cyst culture", "setting": "chytrids; 0.10% of culture volume, after 24 and 48 hours", "value": "dead sporangia, some infection, and active zoospores"}, {"measurement": "microscope observation of infected red cyst culture", "setting": "chytrids; 0.10% of culture volume, after 72 hours", "value": "Some swimming zoospores and active infection"}, {"measurement": "microscope observation of infected red cyst culture", "setting": "chytrids; 1.00% of culture volume, after 24 hours", "value": "dead sporangia and zoospores attached to cyst cells"}, {"measurement": "microscope observation of infected red cyst culture", "setting": "chytrids; 1.00% of culture volume, after 48 hours", "value": "Ochromonas, bacteria, dead sporangia, zoospores attached to cyst cells, and few swimming zoospores"}, {"measurement": "microscope observation of infected red cyst culture", "setting": "chytrids; 1.00% of culture volume, after 72 hours", "value": "Ochromonas, no active infection, and no zoospores"}]}
